# Assays:
# [1] = test system: Relapsed/Refractory Multiple Myeloma (RRMM) patients; assay: Clinical study of CC-93269 in RRMM: efficacy (IMWG response, MRD); format: in vivo, human
# Procedure: This study involved 19 RRMM patients who had received ≥3 prior regimens without prior BCMA-directed therapy. Prior treatments included autologous stem cell transplantation, allogenic stem cell transplantation, lenalidomide, pomalidomide, bortezomib, carfilzomib, and daratumumab (DARA). All patients had MM refractory to their last line of therapy.
# CC-93269 (42-TCBcv), a bispecific antibody that specifically binds to BCMA bivalently and CD3 monovalently, was administered intravenously over 2 hours on Days 1, 8, 15, and 22 for Cycles 1-3; Days 1 and 15 for Cycles 4-6; and on Day 1 for Cycle 7 and beyond, all in 28-day cycles. 14 patients received a fixed dose of CC-93269 at each of the intervals: 0.15 mg (Cohort 1, n=1), 0.5 mg (Cohort 2, n=1), 1.5 mg (Cohort 3, n=1), 3 mg (Cohort 4, n=4), 6 mg (Cohort 5, n=3) or 10 mg (Cohort 6, n=4). 5 patients received a starting dose of 6 mg on Cycle 1 Day 1, followed by a dose of 10 mg on Cycle 1 Day 8 and thereafter (Cohort 7, n=5).
# Response was assessed using the International Myeloma Working Group (IMWG) Uniform Response Criteria (Rajkumar, 2011a; Kumar, 2016) at every cycle starting on Cycle 2 Day 1 and at the end of treatment. Minimal residual disease (MRD) was assessed by EuroFlow evaluation and NGS (next-generation sequencing) if evaluable. MRD negativity was reported only if a minimum sensitivity of <1 tumour cell in 10^5 nucleated cells was achieved. […]
# [2] = test system: MM1S BCMA-expressing myeloma cell line; assay: CC-93269-induced redirected lysis of MM1S; format: cell-based, human; conditions: E:T 1:1, 72 hours, 3 donors
# Procedure: (§1) Four BCMA-expressing tumour cell lines purchased from ATCC (Manassa, Va.) (Multiple Myeloma cell lines: BCMA high-H-929 (catalog number CRL-9068), BCMA mid-SKMM2 and -MM.1S (catalog number ACC-430) and BCMA low-KMS12-PE (catalog number ACC-606)) were co-cultured with T-cells from 3 independent healthy donors (Bloodworks Northwest, Seattle, Wash.), at a E:T ratio of 1:1, i.e. 1 T cell: 1 myeloma cell. […]; 0.033-2.6 nM) for 72 hours.
# (§2) FIG. 7 illustrates CC-93269-induced redirected lysis of BCMA+ tumour cell lines following co-culture with donor T cells from one healthy donor; results from all 3 independent healthy donors are summarised in Table 19. In 96-well round bottom plates and a final volume of 100 μL, 1×10^4 CellTrace Violet-labeled T-cells were plated with 1×10^4 CellTrace CFSE-labeled target cells, in the presence of varying concentrations of CC-93269 in combination with varying concentrations of dexamethasone (7-point dose response). The cocultures were incubated at 37° C. with 5% CO2. […] One-hundred percent viability was determined by the absolute cell count of live tumour cells at no addition of CC-93269 or dexamethasone; an absolute cell count of 0 live cells was used to define 100% killing of tumour cells. […] The IC50 values were calculated using non-linear regression analysis, sigmoidal dose-response using GraphPad Prism (version 5.0) software.
# [3] = test system: SKMM2 BCMA-expressing myeloma cell line; assay: CC-93269-induced redirected lysis of SKMM2; format: cell-based, human; conditions: E:T 1:1, 72 hours, 3 donors
# Procedure: as §1, §2
# [4] = 12 patients treated with ≥6 mg (Cohort 5 to 7)
# [5] = Patients Treated with <6 mg (n = 7)
# [6] = Patients Treated with up to 10 mg (n = 9)
# [7] = Patients Treated with ≥6 mg (n = 12)
# [8] = Patients treated with up to 3 mg (n = 7)
# [9] = Patients treated with up to 6 mg (n = 14)
# [10] = patients treated with ≥6 mg (Cohort 5 to 7)
substance,measurement,setting,value
"CC-93269: bispecific antibody that specifically binds to BCMA bivalently and CD3 monovalently; SEQ ID NO:48, 55, 56, 57 (2×)",responses,"[1]; 4 patients of Cohort 4, consecutive doses of 3 mg",No responses were observed
same,preliminary overall response rate,"[1]; 9 subjects, maintenance dose of 10 mg (Cohorts 6 and 7)",88.9%
same,MRD negativity,[1]; [4],75.0%
same,overall response rate (partial response or better),[1]; [4],83.3%
same,stringent complete response (sCR),[1]; [4],33.3%
same,very good partial response (VGPR) or better,[1]; [4],58.3%
same,Best response: Minimal response (MR),[1]; All Patients (N =19),0 (0) n (%)
same,Best response: Not evaluable,[1]; All Patients (N =19),2 (10.5) n (%)
same,Best response: Partial response (PR),[1]; All Patients (N =19),3 (15.8) n (%)
same,Best response: Progressive disease (PD),[1]; All Patients (N =19),3 (15.8) n (%)
same,Best response: Stringent complete response + complete response (sCR + CR),[1]; All Patients (N =19),4 (21.1) n (%)
same,Best response: Very good partial response (VGPR),[1]; All Patients (N =19),3 (15.8) n (%)
same,VGPR or better,[1]; All Patients (N =19),7 (36.8) n (%)
same,Overall response (PR or better),"[1]; All Patients (N =19), Cohorts 1-7",10 (52.6) n (%)
same,response compared with Cohorts 1 to 4 (maintenance dose ≤3 mg),"[1]; Cohorts 8 and 9, starting dose 3 mg then maintenance dose ≥6 mg",improved response
same,Best response: Minimal response (MR),[1]; [5],0 (0) n (%)
same,Best response: Not evaluable,[1]; [5],1 (14.3) n (%)
same,Best response: Partial response (PR),[1]; [5],0 (0) n (%)
same,Best response: Progressive disease (PD),[1]; [5],2 (28.6) n (%)
same,Best response: Stringent complete response + complete response (sCR + CR),[1]; [5],0 (0) n (%)
same,Best response: Very good partial response (VGPR),[1]; [5],0 (0) n (%)
same,VGPR or better,[1]; [5],0 (0) n (%)
same,Overall response (PR or better),"[1]; Patients Treated with <6 mg (n = 7), Cohorts 1-7",0 (0) n (%)
same,Best response: Minimal response (MR),[1]; [6],0 n (%)
same,Best response: Not evaluable,[1]; [6],1 (11.1) n (%)
same,Best response: Partial response (PR),[1]; [6],1 (11.1) n (%)
same,Best response: Progressive disease (PD),[1]; [6],0 n (%)
same,Best response: Stringent complete response + complete response (sCR + CR),[1]; [6],4 (44.4) n (%)
same,Best response: Very good partial response (VGPR),[1]; [6],3 (33.3) n (%)
same,Overall response (PR or better),"[1]; Patients Treated with up to 10 mg (n = 9), Cohorts 1-9",8 (88.9) n (%)
same,Best response: Minimal response (MR),[1]; [7],0 (0) n (%)
same,Best response: Not evaluable,[1]; [7],1 (8.3) n (%)
same,Best response: Partial response (PR),[1]; [7],3 (25.0) n (%)
same,Best response: Progressive disease (PD),[1]; [7],1 (8.3) n (%)
same,Best response: Stringent complete response + complete response (sCR + CR),[1]; [7],4 (33.3) n (%)
same,Best response: Very good partial response (VGPR),[1]; [7],3 (25.0) n (%)
same,MRD negative,[1]; [7],9 (75.0) n (%)
same,VGPR or better,[1]; [7],7 (58.3) n (%)
same,Overall response (PR or better),"[1]; Patients Treated with ≥6 mg (n = 12), Cohorts 1-7",10 (83.3) n (%)
same,Best response: Minimal response (MR),[1]; [8],0 (0) n (%)
same,Best response: Not evaluable,[1]; [8],1 (14.3) n (%)
same,Best response: Partial response (PR),[1]; [8],0 (0) n (%)
same,Best response: Progressive disease (PD),[1]; [8],2 (28.6) n (%)
same,Best response: Stringent complete response + complete response (sCR + CR),[1]; [8],0 (0) n (%)
same,Best response: Very good partial response (VGPR),[1]; [8],0 (0) n (%)
same,Overall response (PR or better),"[1]; Patients treated with up to 3 mg (n = 7), Cohorts 1-9",0 (0) n (%)
same,Best response: Minimal response (MR),[1]; [9],0 (0) n (%)
same,Best response: Not evaluable,[1]; [9],3 (21.4) n (%)
same,Best response: Partial response (PR),[1]; [9],3 (21.4) n (%)
same,Best response: Progressive disease (PD),[1]; [9],5 (35.7) n (%)
same,Best response: Stringent complete response + complete response (sCR + CR),[1]; [9],1 (7.1) n (%)
same,Best response: Very good partial response (VGPR),[1]; [9],1 (7.1) n (%)
same,Overall response (PR or better),"[1]; Patients treated with up to 6 mg (n = 14), Cohorts 1-9",5 (35.7) n (%)
same,preliminary overall response rate,"[1]; patients treated with up to 6 mg (Cohorts 5, 8, and 9)",35.7%
same,median time to response,[1]; [10],4.2 weeks
same,"time to response, range",[1]; [10],4.0-13.1 weeks
same,"% live tumour cells, Mean",[2]; 1 μM Dex co-treatment,0.98%
same,"% live tumour cells, Mean",[2]; DMSO,1.5%
same,"% live tumour cells, Mean",[3]; 1 μM Dex co-treatment,3.5%
same,"% live tumour cells, Mean",[3]; DMSO,2.68%

# — patent US20230057602A1, “METHODS OF TREATMENT WITH ANTIBODIES AGAINST BCMA AND CD3” (BRISTOL-MYERS SQUIBB COMPANY, priority 2019, published 2023)
